27 compounds from ChEMBL document CHEMBL1136571, “Design, synthesis and structure-activity relationships of benzoxazinone-based factor Xa inhibitors” (Bioorg Med Chem Lett, 2003) can be followed below.

Data set [1] addresses T1, Prothrombin (Homo sapiens, UniProt P00734).
The target in a further data set is Coagulation factor X (Homo sapiens, UniProt P00742). As to the kind of experiment: Inhibitory concentration to factor Xa.
The target of another data set is T2, Anionic trypsin-2 (Rattus norvegicus, UniProt P00763).
T2 sequence (P00763 whole entry): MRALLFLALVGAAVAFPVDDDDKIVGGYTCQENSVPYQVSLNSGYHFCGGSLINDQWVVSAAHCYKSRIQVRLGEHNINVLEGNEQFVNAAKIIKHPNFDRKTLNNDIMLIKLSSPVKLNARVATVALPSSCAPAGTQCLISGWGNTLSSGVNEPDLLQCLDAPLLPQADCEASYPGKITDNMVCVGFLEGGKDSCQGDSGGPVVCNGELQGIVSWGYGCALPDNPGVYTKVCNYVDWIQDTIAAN
The data set can be described thus: Inhibitory concentration against trypsin.

Data set [2] is described as follows: Half-life period in rats following intravenous administration at 2 mg/kg. As to conditions: rat, in vivo. On the set-up: dose 2 mg/kg, route intravenous. The format is ADME, organism-based.
Data set [3] relates to Oryctolagus cuniculus. As to the kind of experiment: Plasma concentration at the dose of 100 ug/kg in rabbit. It counts as functional, organism-based.
Data set [4] deals with Oryctolagus cuniculus. As to the kind of experiment: Percent inhibition of thrombosis at the dose of 50 ug/kg in rabbit deep vein thrombosis model. It counts as functional.
Data set [5] concerns Oryctolagus cuniculus. As to the kind of experiment: Percent inhibition of thrombosis at the dose of 100 ug/kg in rabbit deep vein thrombosis model. The format is functional.
Data set [6] has as its target T1, Prothrombin. As to the kind of experiment: Inhibitory concentration against factor IIa.
A short description of data set [7]: Bioavailability in rat at an oral dose of 2 mg/kg. The format is ADME, organism-based. The following applies: in vivo.
Data set [8] in a line: Half-life period in rabbits following intravenous administration at 2 mg/kg. As to conditions: rabbit, in vivo. The format is ADME, organism-based, Oryctolagus cuniculus. Details: dose 2 mg/kg, route intravenous.
The subject of data set [9] is Oryctolagus cuniculus. The data set can be described thus: Percent inhibition of thrombosis at the dose of 25 ug/kg in rabbit deep vein thrombosis model. It counts as functional. As to conditions: at 25 µg/kg.

Each structure is given as a SMILES string.

As a reminder, the IC50 is the concentration that inhibits the measured activity by half. Low values mean inhibition by little substance, high ones a need for much substance. What is called half-life is the time needed for the level to fall by half in the phase considered. By inhibition in vivo is commonly meant the drop in the measured response relative to a control, in per cent. A high value points to strong suppression. Usually bioavailability stands for dose-corrected exposure relative to a reference, in per cent. Read a high bioavailability as much systemic uptake.

Sequence of Coagulation factor X (P00742 41-179 limits assumed): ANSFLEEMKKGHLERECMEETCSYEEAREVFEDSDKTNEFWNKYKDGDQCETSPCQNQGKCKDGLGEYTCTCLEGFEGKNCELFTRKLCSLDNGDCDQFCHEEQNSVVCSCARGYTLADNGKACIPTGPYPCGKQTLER
Sequence of Coagulation factor X (P00742 235-488 limits assumed): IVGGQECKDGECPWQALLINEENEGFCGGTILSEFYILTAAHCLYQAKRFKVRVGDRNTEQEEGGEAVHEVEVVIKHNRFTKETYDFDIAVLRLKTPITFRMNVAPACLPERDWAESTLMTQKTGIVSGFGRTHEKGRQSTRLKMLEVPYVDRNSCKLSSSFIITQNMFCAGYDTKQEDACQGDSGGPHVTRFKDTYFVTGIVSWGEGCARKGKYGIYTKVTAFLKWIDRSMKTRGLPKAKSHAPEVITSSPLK

Turning to `CC(=N)N1CCC(Oc2ccc(N(Cc3ccc4ccc(C(=N)N)cc4c3)S(C)(=O)=O)cc2)CC1`, the IC50 was greater than 10 µM at Prothrombin [1], 6 nM at Coagulation factor X and 94 nM on Anionic trypsin-2.

On to `CC(=N)N1CCC(Oc2ccc(N(Cc3cc(-c4cccc(C(=N)N)c4)no3)S(C)(=O)=O)cc2)CC1`, for which the figures for the IC50 against Prothrombin [1], against Coagulation factor X and on Anionic trypsin-2 were greater than 10 µM, 14 nM and greater than 10000 nM, respectively.

`Cc1cc(CN(c2ccc(-c3ccccc3S(N)(=O)=O)cc2)S(C)(=O)=O)n(-c2cccc(C(=N)N)c2)n1` had an IC50 against Coagulation factor X of 500 nM. This lies in the sub-micromolar range.

Regarding `CC(=N)N1CCC(Oc2ccc(N(Cc3cc4cc(C(=N)N)ccc4n3C)S(C)(=O)=O)cc2)CC1`, the results for the IC50 against Prothrombin [1], at Coagulation factor X and on Anionic trypsin-2 were greater than 10 µM, 31 nM and 167 nM, respectively.

For the compound `CC(=N)N1CCC(Oc2ccc(N(Cc3cccc(-c4cccc(C(=N)N)c4)c3)S(C)(=O)=O)cc2)CC1`, the IC50 at Prothrombin [1] is greater than 10 µM; against Anionic trypsin-2 it was 360 nM.

For `CS(=O)(=O)N(Cc1cccc(-c2cccc(C(=N)N)c2)c1)c1ccc(-c2ccccc2S(N)(=O)=O)cc1`, the midpoint of inhibition against Coagulation factor X, the IC50, lay at 191 nM. This counts as sub-micromolar.

At Coagulation factor X, `CS(=O)(=O)N(Cc1ccc2ccc(C(=N)N)cc2c1)c1ccc(-c2ccccc2S(N)(=O)=O)cc1` showed an IC50 of 153 nM.

As to `CCOC(=O)CS(=O)(=O)N(Cc1cc2cc(C(=N)N)ccc2s1)c1ccc(OC2CCN(C(C)=N)CC2)cc1`, the IC50 against Anionic trypsin-2 was found to be 86 nM.

Consider `CC(=N)N1CCC(Oc2ccc(N(Cc3ccccc3-c3ccc(C(=N)N)cc3)S(C)(=O)=O)cc2)CC1`, for which the IC50 on Prothrombin [1] is greater than 10 µM; against Coagulation factor X, greater than 10000 nM; against Anionic trypsin-2, greater than 10000 nM.

For the compound `CC(=N)N1CCC(Oc2ccc(N(Cc3cccc(-c4cccc(C(=N)N)c4)c3)S(=O)(=O)CC(=O)O)cc2)CC1`, the IC50 stood at 3 nM against Coagulation factor X and 269 nM on Anionic trypsin-2.

Take `CCOC(=O)CS(=O)(=O)N(Cc1ccc2ccc(C(=N)N)cc2c1)c1ccc(OC2CCN(C(C)=N)CC2)cc1`: the IC50 against Coagulation factor X is 6 nM; on Anionic trypsin-2 it was 83 nM.

`CC(=N)N1CCC(Oc2ccc(N(Cc3ccc4ccc(C(=N)N)cc4c3)S(=O)(=O)CC(=O)O)cc2)CC1` [YM-60828] showed an IC50 on Anionic trypsin-2 of 63 nM.

Regarding `CC(=N)N1CCC(Oc2ccc(N(Cc3ccccc3-c3cccc(C(=N)N)c3)S(C)(=O)=O)cc2)CC1`, the IC50 was greater than 10 µM on Prothrombin [1], 7000 nM against Coagulation factor X and greater than 10000 nM on Anionic trypsin-2.

As to `CC(=N)N1CCC(Oc2ccc(N(Cc3cc(C)nn3-c3cccc(C(=N)N)c3)S(C)(=O)=O)cc2)CC1`, the IC50 against Prothrombin [1] was greater than 10 µM; against Anionic trypsin-2, greater than 10000 nM.

As to `CC(=N)N1CCC(Oc2ccc3c(c2)OCC(=O)N3Cc2ccc3ccc(C(=N)N)cc3c2)CC1`, the half-life in data set [2] is 30 min; in [8], 54 min. In the data set with Oryctolagus cuniculus [3], this compound displayed a Concentration of 200 nM. In addition, at 0.05 mg/kg the inhibition in vivo with Oryctolagus cuniculus [4] was 44%. In the data set with Oryctolagus cuniculus [5], at 0.1 mg/kg the inhibition in vivo was 99%. In addition, the values for the IC50 against Prothrombin [6] and against Anionic trypsin-2 were greater than 10 µM and 28 nM, respectively. Besides, the bioavailability in data set [7] turned out to be 4.6%. In the data set with Oryctolagus cuniculus [9], the inhibition in vivo at 0.025 mg/kg turned out to be 7%.

`CC(=N)N1CCC(Oc2ccc3c(c2)OCC(=O)N3Cc2cc3ccc(C(=N)N)cc3n2C)CC1` yielded an IC50 against Anionic trypsin-2 of 76 nM.

With `CC(=N)N1CCC(Oc2ccc(N(Cc3cc4cc(C(=N)N)ccc4s3)S(=O)(=O)CC(=O)O)cc2)CC1`, the IC50 on Coagulation factor X is 3 nM; on Anionic trypsin-2 it was 63 nM.

For the compound `CCn1c(CN2C(=O)COc3cc(OC4CCN(C(C)=N)CC4)ccc32)cc2ccc(C(=N)N)cc21`, the IC50 stood at 2 nM against Coagulation factor X and 58 nM against Anionic trypsin-2.

For the compound `CC(=N)N1CCC(Oc2ccc(N(Cc3ccc(-c4cccc(C(=N)N)c4)cc3)S(C)(=O)=O)cc2)CC1`, the IC50 against Prothrombin [1] is greater than 10 µM; at Anionic trypsin-2, 769 nM.

With `CC(=N)N1CCN(C(=O)c2ccc(N(Cc3ccc4ccc(C(=N)N)cc4c3)S(C)(=O)=O)cc2)CC1`, at Coagulation factor X, half-maximal inhibition (IC50) was put at 1570 nM.

`Cc1cc(CN(c2ccc(-c3ccccc3S(N)(=O)=O)cc2)S(C)(=O)=O)nn1-c1cccc(C(=N)N)c1` came in with an IC50 on Coagulation factor X of 3930 nM.

Turning to `CC(=N)N1CCC(Oc2ccc(N(Cc3cc4ccc(C(=N)N)cc4n3C)S(C)(=O)=O)cc2)CC1`, the IC50 against Prothrombin [1] is greater than 10 µM; against Coagulation factor X it was 0.8 nM; at Anionic trypsin-2, 25 nM.

In the case of `CC(=N)N1CCC(Oc2ccc(N(Cc3cc4cc(C(=N)N)ccc4s3)S(C)(=O)=O)cc2)CC1`, the IC50 at Prothrombin [1] was greater than 10 µM; at Anionic trypsin-2, 21 nM.

In the case of `CC(=N)N1CCC(Oc2ccc(N(Cc3cc(C)n(-c4cccc(C(=N)N)c4)n3)S(C)(=O)=O)cc2)CC1`, the IC50 on Prothrombin [1] was greater than 10 µM; at Anionic trypsin-2, 2110 nM.

As for `CC(=N)N1CCC(Oc2ccc3c(c2)OCC(=O)N3Cc2cc(-c3cccc(C(=N)N)c3)no2)CC1`, the IC50 was greater than 10 µM against Prothrombin [1] and 250000 nM at Anionic trypsin-2.

For `CC(=N)N1CCC(Oc2ccc3c(c2)OCC(=O)N3Cc2cccc(-c3cccc(C(=N)N)c3)c2)CC1`, the values for the IC50 against Prothrombin [1] and at Anionic trypsin-2 were greater than 10 µM and 143 nM, respectively.

As for `CCOC(=O)CS(=O)(=O)N(Cc1cccc(-c2cccc(C(=N)N)c2)c1)c1ccc(OC2CCN(C(C)=N)CC2)cc1`, the concentration for half-maximal inhibition (IC50) against Coagulation factor X turned out to be 7 nM; against Anionic trypsin-2 it was 292 nM.
